Test results: patent US20240285776A1, “SMALL MOLECULE-BASED BI-SPECIFIC IMMUNE CELL TETHERS AND THEIR USE IN THE TREATMENT OF ENVELOPED VIRUS INFECTION” (PURDUE RESEARCH FOUNDATION, priority 2021, published 2024)

Tests used:
[1] = system: Influenza A H1N1/PR8/1932 virus; design: species or system BALB/C mice; conditions: mouse, in vivo
[2] = system: Influenza A Puerto Rico8/1934 (H1N1) virus; type: in vivo, BALB/C mice
[3] = system: Influenza A Puerto Rico/8/1934 (H1N1) virus; type: in vivo, BALB/C mice; conditions: for weight-loss phenomenon: 1.5 μmol/kg once daily for five consecutive days, linear PEG linkers compared to the DBCO-containing linker; for survival rate at the end of the experiment: mouse, in vivo
[4] = system: influenza infection; assay: Treatment of FRβ knockout mice following influenza infection; type: in vivo, folate receptor beta (FRβ) knockout mice; conditions: FRβ knockout mice treated following influenza infection

SMILES	body weight over time [1]	survival at the end of two weeks long experiment [1]	dose response of survival rate ([2]; […], 1.5, 0.5 and 0.17 μmol/kg once daily for five consecutive days)	survival rate ([2]; mouse, in vivo)	weight-loss phenomenon [3]	survival rate at the end of the experiment [3]	survival at the end of the experiment [4]
CC(=O)N[C@H]1[C@H]([C@H](OC(=O)NCCOCCOCCOCCOCCOCCOCCNC(=O)CC[C@H](NC(=O)c2ccc(NCc3cnc4nc(N)[nH]c(=O)c4n3)cc2)C(=O)O)[C@H](O)CO)OC(C(=O)O)=C[C@@H]1NC(=N)N [Compound 10]	did not lose any body weight	both the mice survived	increased with increasing dose	100%	more pronounced	90%	None of the mice survived
CC(=O)N[C@H]1[C@H]([C@H](OC(=O)NCCOCCOCCOCCOCCOCCOCCOCCOCCOCCOCCOCCNC(=O)CC[C@H](NC(=O)c2ccc(NCc3cnc4nc(N)[nH]c(=O)c4n3)cc2)C(=O)O)[C@H](O)CO)OC(C(=O)O)=C[C@@H]1NC(=N)N [zan-PEG11-folate]	–	–	–	–	more pronounced	100%	–
